Data reported in PubChem BioAssay AID328 (DTP/NCI, 2004).
“And” between values parts separate entries of the source, which are not always exact repeats. Equal entries are not always repeated. Inconclusive results and toxic doses are left out.

System: BDF1 mice, P388 leukemia ip, median survival T/C
Assay: NCI In Vivo Anticancer Drug Screen. Data for tumor model P388 Leukemia (intraperitoneal) in B6D2F1 (BDF1) mice
Settings: endpoint: median survival time, higher = longer survival
How it was run: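 Survival ratio, drug arm over vehicle arm, in mice with a transplanted tumour.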

[1] = dose: 100.0 mg/kg/injection, schedule: Q04DX003 (ip), vehicle: saline
[2] = dose: 200.0 mg/kg/injection, schedule: Q04DX003 (ip), vehicle: saline
[3] = dose: 200.0 mg/kg/injection, schedule: Q01DX009 (ip), vehicle: saline with Tween-80
[4] = dose: 50.0 mg/kg/injection, schedule: Q01DX009 (ip), vehicle: Klucel (hydroxypropylcellulose) (HPC)
[5] = dose: 100.0 mg/kg/injection, schedule: Q04DX003 (ip), vehicle: saline with Tween-80
[6] = dose: 200.0 mg/kg/injection, schedule: Q04DX003 (ip), vehicle: saline with Tween-80
[7] = dose: 400.0 mg/kg/injection, schedule: Q04DX003 (ip), vehicle: saline with Tween-80
[8] = dose: 50.0 mg/kg/injection, schedule: Q01DX009 (ip), vehicle: saline with Tween-80
[9] = dose: 100.0 mg/kg/injection, schedule: Q01DX009 (ip), vehicle: saline with Tween-80
[10] = dose: 100.0 mg/kg/injection, schedule: Q01DX009 (ip), vehicle: Klucel (hydroxypropylcellulose) (HPC)
[11] = dose: 100.0 mg/kg/injection, schedule: Q04DX003 (ip), vehicle: Klucel (hydroxypropylcellulose) (HPC)
[12] = dose: 200.0 mg/kg/injection, schedule: Q01DX009 (ip), vehicle: Klucel (hydroxypropylcellulose) (HPC)
[13] = dose: 200.0 mg/kg/injection, schedule: Q04DX003 (ip), vehicle: Klucel (hydroxypropylcellulose) (HPC)
[14] = dose: 400.0 mg/kg/injection, schedule: Q04DX003 (ip), vehicle: Klucel (hydroxypropylcellulose) (HPC)

CN[C@H]1CC[C@]23C[C@]24CC[C@]2(C)[C@@H]([C@H](C)N(C)C)CC[C@@]2(C)[C@@H]4CC[C@H]3C1(C)C
T/C (dose: 2.6 mg/kg/injection, schedule: Q01DX010 (ip), vehicle: saline): 90 % of control
T/C (dose: 4.0 mg/kg/injection, schedule: Q01DX010 (ip), vehicle: saline): 100 % of control
T/C (dose: 6.6 mg/kg/injection, schedule: Q01DX010 (ip), vehicle: saline): 118 % of control
T/C (dose: 8.8 mg/kg/injection, schedule: Q01DX010 (ip), vehicle: carboxymethylcellulose (CMC)): 100 % of control
T/C (dose: 10.0 mg/kg/injection, schedule: Q01DX010 (ip), vehicle: saline): 100 % of control
T/C (dose: 13.3 mg/kg/injection, schedule: Q01DX010 (ip), vehicle: carboxymethylcellulose (CMC)): 105 % of control
T/C (dose: 16.0 mg/kg/injection, schedule: Q01DX010 (ip), vehicle: saline): 113 % of control
T/C (dose: 20.0 mg/kg/injection, schedule: Q01DX010 (ip), vehicle: carboxymethylcellulose (CMC)): 115 % of control
T/C (dose: 26.0 mg/kg/injection, schedule: Q01DX010 (ip), vehicle: saline): 90 % of control
T/C (dose: 30.0 mg/kg/injection, schedule: Q01DX010 (ip), vehicle: carboxymethylcellulose (CMC)): 94 % of control
T/C (dose: 45.0 mg/kg/injection, schedule: Q01DX010 (ip), vehicle: carboxymethylcellulose (CMC)): 94 % of control

O=C(CCCCC(=O)N/N=C\c1ccccn1)N/N=C\c1ccccn1
T/C [1]: 104 % of control
T/C [2]: 100 % of control
T/C (dose: 400.0 mg/kg/injection, schedule: Q04DX003 (ip), vehicle: saline): 109 % of control

CN(C)[C@@H]1C(=O)C(C(N)=O)=C(O)[C@@]2(O)C(=O)C3=C(O)c4c(O)ccc(Cl)c4[C@@](C)(O)[C@H]3C[C@@H]12
T/C (dose: 132.0 mg/kg/injection, schedule: Q01DX009 (ip), vehicle: saline): 122 % of control
T/C (dose: 200.0 mg/kg/injection, schedule: Q01DX009 (ip), vehicle: saline): 122 % of control

O=C(O)/C=N/NS(=O)(=O)/C=C/c1ccccc1
T/C (dose: 50.0 mg/kg/injection, schedule: Q01DX009 (ip), vehicle: other): 155 % of control
T/C (dose: 100.0 mg/kg/injection, schedule: Q01DX009 (ip), vehicle: other): 186 % of control

C=CCNc1ncnc2c1cnn2C
T/C (dose: 25.0 mg/kg/injection, schedule: Q01DX009 (ip), vehicle: saline): 95 % of control and 104 % of control
T/C (dose: 50.0 mg/kg/injection, schedule: Q01DX009 (ip), vehicle: saline): 109 % of control
T/C (dose: 50.0 mg/kg/injection, schedule: Q04DX003 (ip), vehicle: saline): 118 % of control
T/C (dose: 100.0 mg/kg/injection, schedule: Q01DX009 (ip), vehicle: saline): 104 % of control
T/C [1]: 109 % of control
T/C [2]: 90 % of control

CCC(CO)NC(=O)/C=C/c1ccccc1Cl (configuration not stated)
T/C [3]: 91 % of control

CCCCCC/C=C/C#CCCCCCCCC(=O)O
T/C (dose: 37.5 mg/kg/injection, schedule: Q01DX009 (ip), vehicle: Klucel (hydroxypropylcellulose) (HPC)): 106 % of control
T/C (dose: 75.0 mg/kg/injection, schedule: Q01DX009 (ip), vehicle: Klucel (hydroxypropylcellulose) (HPC)): 100 % of control
T/C (dose: 150.0 mg/kg/injection, schedule: Q01DX009 (ip), vehicle: Klucel (hydroxypropylcellulose) (HPC)): 109 % of control

CCC(C)(O)C#CC#CC(C)(O)CC (configuration not stated)
T/C (dose: 12.5 mg/kg/injection, schedule: Q01DX009 (ip), vehicle: Klucel (hydroxypropylcellulose) (HPC)): 100 % of control
T/C (dose: 12.5 mg/kg/injection, schedule: Q04DX003 (ip), vehicle: Klucel (hydroxypropylcellulose) (HPC)): 100 % of control
T/C (dose: 25.0 mg/kg/injection, schedule: Q01DX009 (ip), vehicle: Klucel (hydroxypropylcellulose) (HPC)): 100 % of control
T/C (dose: 25.0 mg/kg/injection, schedule: Q04DX003 (ip), vehicle: Klucel (hydroxypropylcellulose) (HPC)): 90 % of control
T/C [4]: 113 % of control
T/C (dose: 50.0 mg/kg/injection, schedule: Q04DX003 (ip), vehicle: Klucel (hydroxypropylcellulose) (HPC)): 95 % of control

O=C(O)/C(=C\c1ccccc1Br)c1ccc(C(F)(F)F)cc1[N+](=O)[O-]
T/C (dose: 75.0 mg/kg/injection, schedule: Q01DX001 (ip), vehicle: saline with Tween-80): 100 % of control
T/C (dose: 150.0 mg/kg/injection, schedule: Q01DX001 (ip), vehicle: saline with Tween-80): 95 % of control
T/C (dose: 300.0 mg/kg/injection, schedule: Q01DX001 (ip), vehicle: saline with Tween-80): 100 % of control

COc1ccc2[nH]c3c(C)c4cc[n+](CCCCCCCC[n+]5ccc6c(C)c7[nH]c8ccc(OC)cc8c7c(C)c6c5)cc4c(C)c3c2c1
T/C (dose: 6.25 mg/kg/injection, schedule: Q04DX003 (ip), vehicle: other): 121 % of control

CCOc1ccc(C(=O)Nc2c(C)cc(C)cc2C)cc1
T/C [5]: 96 % of control
T/C [6]: 112 % of control
T/C [7]: 104 % of control

Cc1cc2nc3c(nc2cc1C)-c1ccccc1C3=O
T/C [5]: 110 % of control
T/C [6]: 100 % of control
T/C [7]: 100 % of control

CCCN(CCC)C(=S)[S-].CCCN(CCC)C(=S)[S-].[Zn]
T/C (dose: 37.5 mg/kg/injection, schedule: Q04DX003 (ip), vehicle: saline sonified): 100 % of control
T/C (dose: 75.0 mg/kg/injection, schedule: Q04DX003 (ip), vehicle: saline sonified): 100 % of control
T/C (dose: 150.0 mg/kg/injection, schedule: Q04DX003 (ip), vehicle: saline sonified): 112 % of control

CC[C@@]1(O)C[C@H](OC2CC(N(C)C)C(OC3CC(O)C(OC4CCC(=O)C(C)O4)C(C)O3)C(C)O2)c2c(cc3c(c2O)C(=O)c2c(O)cccc2C3=O)[C@H]1C(=O)OC (some centres not stated)
T/C (dose: 0.25 mg/kg/injection, schedule: Q01DX009 (ip), vehicle: water): 100 % of control
T/C (dose: 0.5 mg/kg/injection, schedule: Q01DX009 (ip), vehicle: saline): 116 % of control
T/C (dose: 2.0 mg/kg/injection, schedule: Q01DX009 (ip), vehicle: water): 154 % of control
T/C (dose: 3.24 mg/kg/injection, schedule: Q04DX003 (ip), vehicle: water): 169 % of control
T/C (dose: 4.0 mg/kg/injection, schedule: Q01DX009 (ip), vehicle: saline): 166 % of control
T/C (dose: 4.0 mg/kg/injection, schedule: Q01DX009 (ip), vehicle: water): 194 % of control
T/C (dose: 4.7 mg/kg/injection, schedule: Q04DX003 (ip), vehicle: water): 116 % of control
T/C (dose: 5.4 mg/kg/injection, schedule: Q04DX003 (ip), vehicle: water): 197 % of control
T/C (dose: 8.0 mg/kg/injection, schedule: Q01DX009 (ip), vehicle: saline): 236 % of control
T/C (dose: 9.0 mg/kg/injection, schedule: Q04DX003 (ip), vehicle: water): 203 % of control
T/C (dose: 9.4 mg/kg/injection, schedule: Q04DX003 (ip), vehicle: water): 184 % of control

Nc1ccc2nc3ccccc3c(NCCCCCCCCNc3c4ccccc4nc4ccc(N)cc34)c2c1
T/C (dose: 2.5 mg/kg/injection, schedule: Q01DX009 (ip), vehicle: water): 154 % of control
T/C (dose: 10.0 mg/kg/injection, schedule: Q01DX009 (ip), vehicle: water): 165 % of control

O=c1[nH]cnc2c(Cl)c(C(Cl)(Cl)Cl)nn12 (tested in a mixture with another compound)
T/C [8]: 99 % of control
T/C [9]: 90 % of control and 103 % of control
T/C [5]: 111 % of control
T/C [3]: 99 % of control and 114 % of control
T/C [6]: 104 % of control
T/C (dose: 400.0 mg/kg/injection, schedule: Q01DX009 (ip), vehicle: saline with Tween-80): 93 % of control and 112 % of control
T/C [7]: 102 % of control

O=[N+]([O-])c1ccc(NCc2ccccc2)nc1
T/C (dose: 25.0 mg/kg/injection, schedule: Q01DX009 (ip), vehicle: saline with Tween-80): 107 % of control
T/C [8]: 109 % of control
T/C [9]: 114 % of control

C#CCCCOC(=O)Nc1ccccc1
T/C [4]: 90 % of control
T/C [10]: 90 % of control

CCSc1nc(=S)cc(C)[nH]1
T/C [10]: 105 % of control
T/C [11]: 95 % of control
T/C [12]: 100 % of control
T/C [13]: 95 % of control
T/C (dose: 400.0 mg/kg/injection, schedule: Q01DX009 (ip), vehicle: Klucel (hydroxypropylcellulose) (HPC)): 105 % of control
T/C [14]: 104 % of control

CCOC(=O)C(C)Cl (configuration not stated)
T/C [4]: 104 % of control
T/C [10]: 100 % of control
T/C [11]: 110 % of control
T/C [12]: 91 % of control
T/C [13]: 105 % of control
T/C [14]: 105 % of control

O=C(OC(=O)c1cccc(-c2ccccc2)c1)c1cccc(-c2ccccc2)c1
T/C [4]: 104 % of control
T/C [10]: 95 % of control
T/C [12]: 95 % of control
